Data set [1] concerns the target T1, CYP2B6 (Homo sapiens, UniProt P20813).
T1 sequence (P20813 1-491): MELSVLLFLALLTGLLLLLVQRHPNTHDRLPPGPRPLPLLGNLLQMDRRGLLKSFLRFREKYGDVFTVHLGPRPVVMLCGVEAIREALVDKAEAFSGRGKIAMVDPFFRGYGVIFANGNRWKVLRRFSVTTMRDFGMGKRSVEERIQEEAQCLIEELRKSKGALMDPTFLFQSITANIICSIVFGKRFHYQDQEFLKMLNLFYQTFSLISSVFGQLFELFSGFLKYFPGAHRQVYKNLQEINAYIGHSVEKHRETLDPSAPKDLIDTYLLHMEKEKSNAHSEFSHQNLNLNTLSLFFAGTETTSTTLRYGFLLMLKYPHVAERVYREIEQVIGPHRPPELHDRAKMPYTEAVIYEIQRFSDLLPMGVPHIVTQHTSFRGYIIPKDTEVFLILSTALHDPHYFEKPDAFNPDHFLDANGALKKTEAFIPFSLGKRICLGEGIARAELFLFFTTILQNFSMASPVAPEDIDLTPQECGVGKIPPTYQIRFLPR
The data set can be described thus: IC50-shift experiment, CYP2B6 in HLMs. Format: in vitro ADME. Also noted: 0.20 mg/mL HLMs or 0.20 mg/mL RLMs; from tissue; host or cells: human liver microsomes. Particulars: for IC50: bupropion 40 μM. As to the method:
The components of the incubation system were as follows: 0.20 mg/mL HLMs or 0.20 mg/mL RLMs, 0.1 M Tris-HCl, vortioxetine, and the probe substrates of each enzyme. In the study of Km’s (Michaelis–Menten constant) experiment, midazolam (1, 2, 5, 10, 20, 50 and 100 μM in HLMs and RLMs) corresponded to CYP3A4/3A; bupropion (10, 20, 50, 100, 200, 500, 1,000 and 2000 μM in HLMs; 1, 2, 5, 10, 20, 50, 100 and 200 μM in RLMs) corresponded to CYP2B6/2B; amodiaquine (5, 10, 20, 50, 100 and 200 μM in HLMs; 10, 20, 50, 100, 200, 500 μM in RLMs) corresponded to CYP2C8/CYP2C-1; losartan (1, 2, 5, 10, 20, 50, 100, 200 μM in HLMs; 10, 20, 50, 100, 200, 500 and 1,000 μM in RLMs) corresponded to CYP2C9/CYP2C-2; mephenytoin (20, 50, 100, 200, 500 and 1,000 μM in HLMs; 5, 10, 20, 50, 100, 200, 500 and 1,000 μM in RLMs) corresponded to CYP2C19/CYP2C-3; and dextromethorphan (1, 2, 5, 10, 20, 50 and 100 μM in HLMs and RLMs) corresponded to CYP2D6/CYP2D. After 5.0 min of preincubation in the shaking water bath, the reaction was started with the addition of 1.0 mM NADPH. The incubated temperature at 37°C for 30 min. After the incubation, the enzyme reaction was stopped by cooling at −80°C, and 200 μL of acetonitrile and 20 μL of internal standard diazepam (200 ng/mL) were added for protein precipitation. […]
IC50-shift was used to investigate whether the drug produced time-dependent inhibition (TDI) of the enzyme. […] During the experiment, the individual substrates midazolam (4 μM), bupropion (40 μM), amodiaquine (3 μM), losartan (8 μM), mephenytoin (90 μM), and dextromethorphan (10 μM) were determined with vortioxetine IC50-shift in HLMs. […]
All experiments results were detected by UPLC-MS/MS, which equipped with a Waters Acquity UPLC system (Milford, MA, United States) and a Waters Xevo TQ-S triple quadrupole tandem mass spectrometer with an electrospray ionization source (Milford, MA, United States). […]
(§1) IC50 values and enzyme kinetic parameters were calculated by Graphpad Prism 6.0 (GraphPad software Inc., CA, United States). […] Data for each experiment were expressed as mean ± SD (n = 3).

Data set [2] addresses T1, CYP2B6. The data set can be described thus: Reversible inhibition kinetics (Lineweaver-Burk), CYP2B6 in HLMs. Format: in vitro ADME. Also noted: 0.20 mg/mL HLMs; from tissue; host or cells: human liver microsomes. Conditions: bupropion. As to the method:
The components of the incubation system were as follows: 0.20 mg/mL HLMs or 0.20 mg/mL RLMs, 0.1 M Tris-HCl, vortioxetine, and the probe substrates of each enzyme. In the study of Km’s (Michaelis–Menten constant) experiment, midazolam (1, 2, 5, 10, 20, 50 and 100 μM in HLMs and RLMs) corresponded to CYP3A4/3A; bupropion (10, 20, 50, 100, 200, 500, 1,000 and 2000 μM in HLMs; 1, 2, 5, 10, 20, 50, 100 and 200 μM in RLMs) corresponded to CYP2B6/2B; amodiaquine (5, 10, 20, 50, 100 and 200 μM in HLMs; 10, 20, 50, 100, 200, 500 μM in RLMs) corresponded to CYP2C8/CYP2C-1; losartan (1, 2, 5, 10, 20, 50, 100, 200 μM in HLMs; 10, 20, 50, 100, 200, 500 and 1,000 μM in RLMs) corresponded to CYP2C9/CYP2C-2; mephenytoin (20, 50, 100, 200, 500 and 1,000 μM in HLMs; 5, 10, 20, 50, 100, 200, 500 and 1,000 μM in RLMs) corresponded to CYP2C19/CYP2C-3; and dextromethorphan (1, 2, 5, 10, 20, 50 and 100 μM in HLMs and RLMs) corresponded to CYP2D6/CYP2D. After 5.0 min of preincubation in the shaking water bath, the reaction was started with the addition of 1.0 mM NADPH. The incubated temperature at 37°C for 30 min. After the incubation, the enzyme reaction was stopped by cooling at −80°C, and 200 μL of acetonitrile and 20 μL of internal standard diazepam (200 ng/mL) were added for protein precipitation. The solution was fully vortexed and centrifuged at 13,000 × rpm for 10 min, and the supernatant was collected for data analysis by UPLC-MS/MS.
The inhibitory mechanism of the inhibitor on the enzyme was generally used by different concentrations of the inhibitor against different concentrations of the probe substrate. The concentrations of the inhibitor and the concentrations of probe substrates in the experiment were estimated based on IC50 and Km values, respectively.
In HLMs, the concentrations of the substrates midazolam, bupropion, amodiaquine, losartan, mephenytoin, and dextromethorphan were 1, 2, 4, 8 μM; 10, 20, 40, 80 μM; 0.8, 1.5, 3, 6 μM; 2, 4, 8, 16 μM; 20, 45, 90, 180 μM; 2.5, 5, 10, 20 μM, respectively. Corresponding to the concentration of vortioxetine were 2, 4, 9, 18 μM; 2, 4, 8, 16 μM; 4, 8, 15, 30 μM; 5, 10, 25, 50 μM; 0.6, 1.2, 2.5, 5 μM; 4.5, 9, 18, 36 μM, respectively.
All experiments results were detected by UPLC-MS/MS, which equipped with a Waters Acquity UPLC system (Milford, MA, United States) and a Waters Xevo TQ-S triple quadrupole tandem mass spectrometer with an electrospray ionization source (Milford, MA, United States). The chromatographic separation was performed on a Waters ACQUITY UPLC BEH C18 column (2.1 × 50 mm, 1.7 μm, Waters Corp.) at 40°C. […]
as §1

Details of data set [3]: method as in earlier work. Conditions: patients with severe liver impairment; single oral dose of 10 mg; ref (2022); cited from earlier work.

The term IC50 denotes the concentration that gives 50% inhibition. One may read the Ki as the dissociation constant of the complex between target and ligand, obtained from inhibition or displacement. Regarding `Cc1ccc(Sc2ccccc2N2CCNCC2)c(C)c1` [vortioxetine], on CYP2B6 [1] (30 min preincubation with 1.0 mM NADPH), the IC50 is 6.69 µM. The IC50 on CYP2B6 [1] (30 min preincubation without NADPH) worked out at 5.38 µM. On CYP2B6 [1] (human, human liver microsomes, probe bupropion (40 μM), ratio IC50 (−) NADPH to IC50 (+) NADPH, read-out: IC50 fold shift), the IC50 shift at 30 min was found to be 0.8. Besides, at CYP2B6 [2], the affinity, expressed as Ki, was 8.55 µM and the α was found to be 2.70. Further, the Inhibition type entry on CYP2B6 [2] (Lineweaver-Burk plot) is on record as “mixed inhibition”. On CYP2B6 [2] (secondary plot of y-intercepts), the αKi turned out to be 23.04 µM. In data set [3], the “AUC(0-t) higher than healthy subjects” value was 10% and the “Cmax lower than healthy subjects” value is on record as 24%.

(Values after paper PMC10544575, “Inhibitory mechanism of vortioxetine on CYP450 enzymes in human and rat liver microsomes” (Frontiers in Pharmacology, 2023).)
